Measurements: patent US12152024B2, “Pesticidally active heterocyclic derivatives with sulphur and hydroxylamine substituents” (SYNGENTA PARTICIPATIONS AG, priority 2016, dated 2024)

Columns and labels:
[1] = tested on: Euschistus heros (Neotropical Brown Stink Bug); assay: Activity against Euschistus heros (neotropical brown stink bug), soybean leaves sprayed; assay type: in vivo; settings: 120 h, application rate 200 ppm, N2 nymphs, 5 days after infestation, read-out: effect in at least one of the two categories (mortality or growth inhibition)
Experimental: Soybean leaves on agar in 24-well microtiter plates were sprayed with aqueous test solutions prepared from 10′000 ppm DMSO stock solutions. After drying the leaves were infested with N2 nymphs. The samples were assessed for mortality and growth inhibition in comparison to untreated samples 5 days after infestation.

[2] = tested on: Myzus persicae (Green Peach Aphid); assay: Activity against Myzus persicae (green peach aphid): systemic activity; assay type: in vivo; settings: for mortality at 24 ppm: Myzus persicae, 144 h, test rate 24 ppm, systemic, pea seedling roots in test solution, 6 days
Experimental: Roots of pea seedlings infested with an aphid population of mixed ages were placed directly into aqueous test solutions prepared from 10′000 DMSO stock solutions. The samples were assessed for mortality 6 days after placing seedlings into test solutions.

[3] = tested on: Myzus persicae (Green Peach Aphid); assay: Activity against Myzus persicae (green peach aphid): feeding/contact activity; assay type: in vivo; settings: for mortality at 200 ppm: Myzus persicae, 144 h, application rate 200 ppm, feeding/contact, mixed ages, 6 days after infestation
Experimental: Sunflower leaf discs were placed onto agar in a 24-well microtiter plate and sprayed with aqueous test solutions prepared from 10′000 ppm DMSO stock solutions. After drying, the leaf discs were infested with an aphid population of mixed ages. The samples were assessed for mortality 6 days after infestation.

[4] = tested on: Diabrotica balteata (corn root worm); assay: Activity against Diabrotica balteata (corn root worm), maize sprouts sprayed; assay type: in vivo; settings: for percent effect (mortality or growth inhibition) at 200 ppm: 96 h, application rate 200 ppm, L2 larvae, 4 days after infestation, read-out: effect in at least one of the two categories (mortality or growth inhibition)
Experimental: Maize sprouts placed onto an agar layer in 24-well microtiter plates were treated with aqueous test solutions prepared from 10′000 ppm DMSO stock solutions by spraying. After drying, the plates were infested with L2 larvae (6 to 10 per well). The samples were assessed for mortality and growth inhibition in comparison to untreated samples 4 days after infestation.

[5] = tested on: Spodoptera littoralis (Egyptian Cotton Leaf Worm); assay: Activity against Spodoptera littoralis (Egyptian cotton leaf worm), cotton leaf discs sprayed; assay type: in vivo; settings: for percent control (mortality, anti-feedant effect or growth inhibition) at 200 ppm: foliar, 72 h, application rate 200 ppm, L1 larvae, 3 days after infestation, read-out: control (mortality, anti-feeding effect or growth inhibition)
Experimental: Cotton leaf discs were placed onto agar in 24-well microtiter plates and sprayed with aqueous test solutions prepared from 10′000 ppm DMSO stock solutions. After drying the leaf discs were infested with five L1 larvae. The samples were assessed for mortality, anti-feeding effect, and growth inhibition in comparison to untreated samples 3 days after infestation. Control of Spodoptera littoralis by a test sample is given when at least one of the categories mortality, anti-feedant effect, and growth inhibition is higher than the untreated sample.

[6] = tested on: Spodoptera littoralis (Egyptian Cotton Leaf Worm); assay: Activity against Spodoptera littoralis (Egyptian cotton leaf worm), uptake via lettuce roots from agar; assay type: in vivo; settings: 144 h, test rate 12.5 ppm, 6 days after infestation, read-out: effect in at least one of the three categories (mortality, anti-feeding, or growth inhibition)
Excerpt: Test compounds were applied by pipette from 10′000 ppm DMSO stock solutions into 24-well plates and mixed with agar. Lettuce seeds were placed onto the agar and the multi well plate was closed by another plate which contained also agar. After 7 days the compound was absorbed by the roots and the lettuce grew into the lid plate. The lettuce leaves were then cut off into the lid plate. Spodoptera eggs were pipetted through a plastic stencil onto a humid gel blotting paper and the lid plate was closed with it. The samples were assessed for mortality, anti-feedant effect and growth inhibition in comparison to untreated samples 6 days after infestation.

[7] = tested on: Plutella xylostella (Diamond Back Moth); assay: Activity against Plutella xylostella (diamond back moth), artificial diet; assay type: in vivo; settings: for percent effect (mortality or growth inhibition) at 200 ppm: 120 h, application rate 200 ppm, L2 larvae, 5 days after infestation, read-out: effect in at least one of the two categories (mortality or growth inhibition)
Experimental: 24-well microtiter plates with artificial diet were treated with aqueous test solutions prepared from 10′000 ppm DMSO stock solutions by pipetting. After drying, the plates were infested with L2 larvae (10 to 15 per well). The samples were assessed for mortality and growth inhibition in comparison to untreated samples 5 days after infestation.

[8] = tested on: Tetranychus urticae (Two-Spotted Spider Mite); assay: Activity against Tetranychus urticae (two-spotted spider mite); assay type: in vivo; settings: 192 h, application rate 200 ppm, mixed population (mobile stages), 8 days after infestation
Experimental: Bean leaf discs on agar in 24-well microtiter plates were sprayed with aqueous test solutions prepared from 10′000 ppm DMSO stock solutions. After drying the leaf discs were infested with a mite population of mixed ages. The samples were assessed for mortality on mixed population (mobile stages) 8 days after infestation.

[9] = tested on: Bemisia tabaci (Cotton White Fly); assay: Activity against Bemisia tabaci (cotton white fly); assay type: in vivo; settings: 144 h, application rate 200 ppm, adult white flies, 6 days after incubation
Experimental: Cotton leaf discs were placed on agar in 24-well microtiter plates and sprayed with aqueous test solutions prepared from 10′000 ppm DMSO stock solutions. After drying the leaf discs were infested with adult white flies. The samples were checked for mortality 6 days after incubation.

[10] = tested on: Franklinella occidentalis (Western Flower Thrips); assay: Activity against Franklinella occidentalis (western flower thrips); assay type: in vivo; settings: Frankliniella occidentalis, 168 h; application rate 200 ppm; mixed ages; 7 days after infestation
Experimental: Sunflower leaf discs were placed on agar in 24-well microtiter plates and sprayed with aqueous test solutions prepared from […] stock solutions. After drying the leaf discs were infested with a Frankliniella population of mixed ages. The samples were assessed for mortality 7 days after infestation.

[11] = concentration 12.5 ppm, listed as drawing 143

melting point | Compound | percent effect (mortality or growth inhibition) at 200 ppm [1] | Mortality (%) ([2]; Myzus persicae (systemic), concentration 1.5 ppm, listed as drawing 143) | mortality at 24 ppm [2] | Mortality (%) ([3]; Myzus persicae (feeding/contact), concentration 50 ppm, listed as drawing 143) | mortality at 200 ppm [3] | percent effect (mortality or growth inhibition) at 200 ppm [4] | Mortality (%) ([4]; concentration 50 ppm, listed as drawing 143) | Mortality (%) [5, 11] | percent control (mortality, anti-feedant effect or growth inhibition) at 200 ppm [5] | percent effect (mortality, anti-feeding or growth inhibition) at 12.5 ppm [6] | percent effect (mortality or growth inhibition) at 200 ppm [7] | Mortality (%) [7, 11] | mortality at 200 ppm [8] | mortality at 200 ppm [9] | mortality at 200 ppm [10]
 | CCS(=O)(=O)c1cccnc1-c1nc2cc(C(F)(F)F)n(OC)c(=O)c2n1C [Compound A2, 2-(3-ethylsulfonyl-2-pyridyl)-5-methoxy-3-methyl-6-(trifluoromethyl) imidazo[4,5-c]pyridin-4-one] | ≥ 80% | 80% | ≥ 80% | 100% | ≥ 80% | ≥ 80% | 100% | 80% | ≥ 80% | ≥ 80% | ≥ 80% | 80% |  |  | 
 | CCS(=O)(=O)c1ccc(-n2cncn2)nc1-c1nc2cc(C(F)(F)F)n(OC)c(=O)c2n1C [Compound A3, 2-[3-ethylsulfonyl-6-(1,2,4-triazol-1-yl)-2-pyridyl]-5-methoxy-3-methyl-6-(trifluoromethyl)imidazo[4,5-c]pyridin-4-one] | ≥ 80% |  | ≥ 80% |  | ≥ 80% | ≥ 80% |  |  | ≥ 80% |  | ≥ 80% |  | ≥ 80% | ≥ 80% | 
 | CCS(=O)(=O)c1cc(C2(C#N)CC2)cnc1-c1nc2cc(C(F)(F)F)n(OC)c(=O)c2n1C [Compound A8, 1-[5-ethylsulfonyl-6-[5-methoxy-3-methyl-4-oxo-6-(trifluoromethyl)imidazo[4,5-c]pyridin-2-yl]-3-pyridyl]cyclopropanecarbonitrile] | ≥ 80% |  | ≥ 80% |  | ≥ 80% | ≥ 80% |  |  | ≥ 80% |  | ≥ 80% |  | ≥ 80% | ≥ 80% | 
 | CCS(=O)(=O)c1cc(C2(C#N)CC2)ccc1-c1nc2cc(C(F)(F)F)n(OC)c(=O)c2n1C [Compound A9, 1-[3-ethylsulfonyl-4-[5-methoxy-3-methyl-4-oxo-6-(trifluoromethyl)imidazo[4,5-c]pyridin-2-yl)phenyl]cyclopropanecarbonitrile] | ≥ 80% |  | ≥ 80% |  | ≥ 80% | ≥ 80% |  |  | ≥ 80% |  | ≥ 80% |  | ≥ 80% | ≥ 80% | 
195 to 197 °C | CCS(=O)(=O)c1ccc(Cl)nc1-c1nc2cc(C(F)(F)F)n(OC)c(=O)c2n1C [Compound A11, 2-(6-chloro-3-ethylsulfonyl-2-pyridyl)-5-methoxy-3-methyl-6-(trifluoromethyl)imidazo[4,5-c]pyridin-4-one] |  |  |  |  |  |  |  |  |  |  |  |  |  |  | 
 | CCS(=O)(=O)c1cc(C(C)(C)C#N)cnc1-c1nc2cc(C(F)(F)F)n(OC)c(=O)c2n1C [Compound A12, 2-[5-ethylsulfonyl-6-[5-methoxy-3-methyl-4-oxo-6-(trifluoromethyl)imidazo[4,5-c]pyridin-2-yl]-3-pyridyl]-2-methyl-propanenitrile] | ≥ 80% |  | ≥ 80% |  | ≥ 80% | ≥ 80% |  |  | ≥ 80% |  | ≥ 80% |  |  | ≥ 80% | ≥ 80%
 | CCS(=O)(=O)c1cc(Br)cnc1-c1nc2cc(C(F)(F)F)n(OC)c(=O)c2n1C [Compound A17, 2-(5-bromo-3-ethylsulfonyl-2-pyridyl)-5-methoxy-3-methyl-6-(trifluoromethyl)imidazo[4,5-c]pyridin-4-one] | ≥ 80% |  | ≥ 80% |  | ≥ 80% | ≥ 80% |  |  | ≥ 80% |  | ≥ 80% |  |  | ≥ 80% | 
